Data reported in patent US20070225171A1 (priority 2001, published 2007).

What was measured:
[1] = tested on: tobacco dark fired cultivar KY 160 (non-GE control); test: Yield assay, 2,4-D sprayed on non-transgenic tobacco; type: in vivo, Nicotiana tabacum; settings: isooctyl ester formulation; for Plant Yield / Corrected Leaf Yield / Corrected Plant Yield / Leaf Yield: dry matter 21 days after spraying; for Percent Leaf Yield: 21 days after spraying
Description: The use of exogenously supplied synthetic auxins on agronomic crops to elicit direct non-herbicidal effects, with an emphasis on the potential enhancement of yield, was assessed using genetically-engineered (GE) tobacco plant lines expressing synthetic auxin metabolizing genes. Non-GE controls were used, permitting separation of the herbicidal and biological properties of the exogenously supplied synthetic auxins. Tobacco was utilized to model dry matter yield.
The research was conducted in a single phase entailing characterization of response variables when plants were subjected to maximum (1× rate=1 pound/acre of active ingredient) and low (¼×=4 ounces/acre of active ingredient) rates of exogenously applied 2,4-dichlorophenoxyacetic acid (2,4-D). GE lines of tobacco (dark fired cultivar “KY 160”) expressing a synthetic gene for auxin metabolism (SAD1 or SAD2) were used, along with non-GE lines of the same genotype as control material. Commercial tobacco production has long utilized decapitation (“topping”) to initiate a predictable increase in leaf weight, thickness, and dry matter yield. This yield increase is dependent upon variables, such as genotype and fertility. By utilizing controls of the same genotype and a fixed level of fertility, significant yield variation responses should be attributable to the treatment (exogenous auxin herbicide application).
The overall experimental design was comprised of three parallel completely randomized designs with spray rate and genotype as the main factors. Three replications were performed for each treatment within each experiment. Each replication was the average measurement of six plants. The tobacco lines were allowed to advance to the 6-8 leaf stage. Upon reaching this stage, the primary meristem was removed along with lower leaves so that only 4 leaves remained. Plants were then sprayed with herbicide and permitted to grow for an additional 21 days. At the end of this period, dry matter yields for both leaf and the whole plant were measured.
Yield data recorded for tobacco were leaf dry matter, leaf number, and total dry matter. Corrected plant yield and corrected leaf yield were calculated for each replication as the leaf dry matter divided by leaf number then multiplied by the expected number of leaves (6 plants×4 leaves=24). This corrected leaf yield was then added to stem yield fraction (arrived at by subtracting actual leaf yield from total plant yield) to create a corrected total plant yield. All tobacco yield measurements were recorded in grams after a 7-day drying period in ambient air dryers.
Seed of non-transgenic tobacco lines were germinated on MS03 (MS salts, B5 vitamins, 3% sucrose) medium. Transgenic seeds were germinated on the same medium augmented with 300 mg/L kanamycin monosulfate to allow detection of any seedlings failing to carry the transgene. Thirty days after germination, seedlings were transplanted to the greenhouse into flats holding 8 trays of 6 plants each for a total of 48 plants. Plants were permitted to grow for approximately 45 days, at which time 6-8 leaves had developed. Prior to spraying, the top of the plant retaining the uppermost two leaves was removed (decapitated) resulting in the retention of 4 fully-extended leaves for each plant.
For spray assays and for the yield studies, spraying was performed in an Allen Machine Works Spray Cabinet. Spray rates were established as the equivalent of 16 ounces of active ingredient per acre (1× rate), 4 ounces active ingredient/acre (¼× rate), and the control (no active ingredient per acre or 0×). The herbicide used was 2,4-D, isooctyl ester formulation (3.9 pounds of active ingredient/gallon) at equivalent rates noted above. To achieve this equivalent 1× field rate, 500 microliters of herbicide were diluted into a total volume of 50 ml. The ¼× field rate was achieved by diluting 125 microliters of herbicide in a 50 ml volume. […]

[2] = tested on: tomato genotype UC82L (control); test: Fruit yield assay, 2,4-D sprayed on non-transgenic tomato; type: in vivo, Lycopersicon esculentum; settings: for Total Yield (Fresh Fruit Yield) / Fruit Weight (Average Fresh Fruit Weight) / Total Flowers / Fruit per Plant / Total Fruit No.: UC82L; for Total Yield (Fresh Fruit Yield): harvested over 60 days; for Fruit Weight (Average Fresh Fruit Weight) / Total Flowers / Fruit per Plant / Total Fruit No.: 60 days; for Total Flowers: Flower Number/plant/replication/treatment; for Fruit per Plant: Fruit Number/plant/replication/treatment; for Total Fruit No.: Total Fruit Number/replication/treatment
Excerpt: The use of exogenously supplied synthetic auxins on agronomic crops to elicit direct non-herbicidal effects was further assessed using genetically-engineered tomato plant lines expressing a synthetic auxin metabolizing gene, and non-genetically-engineered controls. Tomato was utilized to model fruit retention (fruit set) and fruit yield. The transgenic tomato line was utilized in the T2 generation with the transgene fixed in a homozygous fashion. The tomato genotype UC82L was utilized as the control, as well as the background for tranformation with the pPZP211-PNPT-311-SAD2 binary plasmid. This genotype was chosen because it is more likely to closely approximate the behavior of field-grown tomatoes than some short-life-cycle laboratory strains of tomato.
In the same manner as for tobacco, the research was conducted in a single phase entailing characterization of response variables when plants were subjected to the maximum (1× rate=1 pound/acre of active ingredient) and low (¼×=4 ounces/acre of active ingredient) rates of exogenously applied 2,4-D. The overall experimental design was comprised of three parallel completely randomized designs with spray rate and genotype as the main factors. Three replications were performed for each treatment within each experiment. Each replication was the average of three plants that were harvested over a period of 60 days. Fruit number, fruit weight and flower number were measured directly, with average fruit weight and average fruit per plant being derived by dividing fruit weight and fruit number within a replication by the number of plants (3). Tomato fruit yield was measured on fresh fruit and recorded in grams.
Non-transgenic and transgenic seed were germinated and grown as described in Example 1 for tobacco. The transgenic tomato line was utilized in the T2 generation with the transgene fixed in a homozygous fashion.
The plants with 4 fully-extended leaves retained were sprayed as described in Example 1. Each replication (3 plants) was sprayed independently and permitted to dry before being moved back to the greenhouse for further growth for 60 days.
Fruit number, fruit weight, and flower number were measured directly during this 60-day period. Tomato fruit yield was measured on fresh fruit and recorded in grams.

[3] = tested on: Plants expressing the dioxygenase encoded by the tfdA gene; test: Herbicide tolerance of plants expressing the tfdA dioxygenase; type: in vivo; settings: found by applicant
Excerpt: See, e.g., Llewellyn and Last, in Herbicide-Resistant Crops Chapter 10, pages 159-174 (Duke, ed., CRC Lewis Publishers 1996). Preferably, additional bacterial codons of the tfdA coding sequence are replaced by plant-preferred codons to obtain better expression of the encoded dioxygenase. […] See, e.g., Llewellyn and Last, in Herbicide-Resistant Crops Chapter 10, pages 159-174 (Duke, ed., CRC Lewis Publishers 1996) and U.S. Pat. Nos. 6,100,446 and 6,153,401.

In the case of O=C(O)COc1ccc(Cl)cc1Cl [2,4-D, 2,4-dichlorophenoxyacetic acid], the “Plant Yield” value ([1]; 2,4-D rate 1X (1 pound active ingredient/acre)) is reported as 27.7 grams/plant/replication/treatment, the “Percent Leaf Yield” value ([1]; 2,4-D rate 1X) is reported as 33.2% and the “Corrected Leaf Yield” value ([1]; 2,4-D rate 1X) is reported as 9.4 grams/plant/replication/treatment. For the same molecule, the “Corrected Plant Yield” value ([1]; 2,4-D rate 1X) was 28.2 grams/plant/replication/treatment, the “Leaf Yield” value ([1]; 2,4-D rate 1X) was 9.0 grams/plant/replication/treatment and the “Plant Yield” value ([1]; 2,4-D rate ¼X (4 ounces active ingredient/acre)) was 33.1 grams/plant/replication/treatment. For the same molecule, the “Percent Leaf Yield” value ([1]; 2,4-D rate ¼X) was 35.2%, the “Corrected Leaf Yield” value ([1]; 2,4-D rate ¼X) was 12.2 grams/plant/replication/treatment and the “Corrected Plant Yield” value ([1]; 2,4-D rate ¼X) was 34.3 grams/plant/replication/treatment. The “Leaf Yield” value ([1]; 2,4-D rate ¼X) was 11.0 grams/plant/replication/treatment, the “Total Yield (Fresh Fruit Yield)” value ([2]; spray rate 1X (1 pound active ingredient/acre), 2,4-D isooctyl ester formulation) was 35.3 grams/plant/replication/treatmen and the “Fruit Weight (Average Fresh Fruit Weight)” value ([2]; spray rate 1X) was 14.1 grams/fruit/plant/replication/treatment. The “Total Flowers” value ([2]; spray rate 1X) was 4.3, the “Fruit per Plant” value ([2]; spray rate 1X) was 0.6 and the “Total Fruit No.” value ([2]; spray rate 1X) was 2.3. For the same molecule, the “Total Yield (Fresh Fruit Yield)” value ([2]; spray rate ¼X (4 ounces active ingredient/acre), 2,4-D isooctyl ester formulation) was 66.1 grams/plant/replication/treatmen, the “Fruit Weight (Average Fresh Fruit Weight)” value ([2]; spray rate ¼X) was 26.0 grams/fruit/plant/replication/treatment and the “Total Flowers” value ([2]; spray rate ¼X) was 6.0. For the same molecule, the “Fruit per Plant” value ([2]; spray rate ¼X) was 0.8, the “Total Fruit No.” value ([2]; spray rate ¼X) was 3.0 and the “effect on average fruit weight” value ([2]; control line, ¼× rate) was “increase in average fruit weight”. The “effect on total flower number” value ([2]; control material, ¼× rate) was “reducing the number of flowers” and the “tolerance of plants to the herbicide” value [3] was “tolerant”.
